Consider 31 compounds from patent publication US10450326B2, “Thiazolopyrimidinone compounds and preparation methods and use thereof” (PEKING UNIVERSITY, priority 2015, dated 2019).

The target of the assay is T1, α7 nAChR (Homo sapiens, UniProt P36544).
T1 construct: expressed in transfected cells; host or cells: Xenopus oocytes (cRNA injection)
Kind of assay: α7 nAChR positive allosteric modulator activity assay, voltage clamp in Xenopus oocytes with 100 μM ACh. Format: cell-based. Conditions: for activity at 10 µM: at 10 μM compound, current induced by 100 μM ACh, Xenopus oocytes expressing α7 nAChR, read-out: Max Mod (%, at 10 μM); for EC50: potentiation of current induced by 100 μM ACh, Hill equation fit. As for the experimental part: The experimental process was as follows:
(1) Xenopus oocytes were injected with cRNA encoding α7 nAChR in order to express α7 nAChR on the cell membrane successfully;
(2) 100 μM ACh alone was added, and the α7 nAChR characteristic current caused by it was recorded as a control;
(5) The oocytes were incubated for 1 min with 10 μM compound, then 10 µM compound and 100 μM ACh were added simultaneously and the current induced by ACh was recorded at this time;
(6) The differences between the two currents in terms of peak intensity and duration were compared, with the ratio of peak intensity of the two currents representing the adjustment effect (Enhance Rate), in order to determine whether the compound had PAM activity, if the activity was good, then the subsequent test was carried out;
(7) Concentration gradient was set and the effects of compounds at different concentrations on the α7 nAChR characteristic current induced by 100 μM ACh were evaluated. Several determinations were carried out at the same concentration, and the results were presented in the form of “mean±standard deviation”;
(8) The EC50 (median maximum effect concentration) values and Max mod (the current amplitude caused by the maximal degree of adjustable endogenous agonist acetylcholine) values of the compounds and other activity data were obtained by Hill equation Inormalized=Emax/(1+(EC50/C)nH).
The amplitude of the peak current is only normalized by the amplitude produced by 100 μM ACh and different concentrations of LD486. […] It can be seen from FIG. 3 that the Hill equation is used to fit the dose-response curve and calculate the kinetic parameters.

T1 sequence (P36544 23-502): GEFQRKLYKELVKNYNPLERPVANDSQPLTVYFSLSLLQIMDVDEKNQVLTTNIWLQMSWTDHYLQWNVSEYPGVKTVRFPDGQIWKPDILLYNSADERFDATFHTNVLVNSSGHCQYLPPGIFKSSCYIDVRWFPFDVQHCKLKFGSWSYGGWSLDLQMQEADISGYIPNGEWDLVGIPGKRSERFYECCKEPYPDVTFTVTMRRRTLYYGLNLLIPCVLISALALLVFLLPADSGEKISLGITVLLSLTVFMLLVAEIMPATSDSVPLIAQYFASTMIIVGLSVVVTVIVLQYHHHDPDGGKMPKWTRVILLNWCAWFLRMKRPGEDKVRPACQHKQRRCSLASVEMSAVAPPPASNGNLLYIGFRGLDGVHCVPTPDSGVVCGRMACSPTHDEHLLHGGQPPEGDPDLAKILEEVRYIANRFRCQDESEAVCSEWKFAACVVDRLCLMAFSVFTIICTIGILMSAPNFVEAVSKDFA

On to `Cc1nc(Cl)cc(Nc2nc3nnn(-c4c(C)cccc4Cl)c(=O)c3s2)n1` [JWX-A3N, 6-((6-Chloro-2-methylpyrimidin-4-yl)amino)-3-(2-chloro-6-methylphenyl)thiazolo[4,5-d][1,2,3]triazin-4(3H)-one], for which the activity at 10 µM is 110%.
By EC50 is commonly meant the concentration giving half of the maximal effect. In the case of `Cc1ccc(Nc2nc3ncn(-c4c(C)cccc4Cl)c(=O)c3s2)cc1F` [JWX-A0108, 6-(2-Chloro-6-methylphenyl)-2-((3-fluoro-4-methylphenyl)amino)thiazolo[4,5-d]pyrimidin-7(6H)-one], the EC50 was 3.39 µM.
On to `Cc1cccc(Cl)c1-n1cnc2nc(NC(=O)c3ccccc3)sc2c1=O` [JWX-A0121, N-(6-(2-Chloro-6-methylphenyl)-7-oxo-6,7-dihydrothiazolo[4,5-d]pyrimidin-2-yl)benzamide], for which the activity at 10 µM turned out to be 200% and the EC50 is 10 µM.
As for `Cc1ccc(C(=O)Nc2nc3ncn(-c4c(C)cccc4Cl)c(=O)c3s2)cc1` [JWX-A0310, N-(6-(2-Chloro-6-methylphenyl)-7-oxo-6,7-dihydrothiazolo[4,5-d]pyrimidin-2-yl)-4-methylbenzamide], the activity at 10 µM was determined as 450% and the EC50 stood at 10 µM.
The matching figures for `COc1ccc(C(=O)Nc2nc3ncn(-c4c(C)cccc4Cl)c(=O)c3s2)cc1` [JWX-A0312, N-(6-(2-Chloro-6-methylphenyl)-7-oxo-6,7-dihydrothiazolo[4,5-d]pyrimidin-2-yl)-4-methoxybenzamide]: 630% and 10 µM.
For `Cc1ccc(Nc2nc3ncn(-c4c(C)cccc4Cl)c(=O)c3s2)cc1C` [JWX-A0315, 6-(2-Chloro-6-methylphenyl)-2-((3,4-dimethylphenyl)amino)thiazolo[4,5-d]pyrimidin-7(6H)-one], in that order: 650% and 6.99 µM.
`Cc1cc(Nc2nc3ncn(-c4c(C)cccc4Cl)c(=O)c3s2)cc(C)c1C` [JWX-A0322, 6-(2-Chloro-6-methylphenyl)-2-((3,4,5-trimethylphenyl)amino)thiazolo[4,5-d]pyrimidin-7(6H)-one]: the activity at 10 µM came out at 600% and the concentration giving a half-maximal response (EC50) was 3.15 µM.
`Cc1ccc(Nc2nc3ncn(-c4ccccc4C)c(=O)c3s2)cc1` [JWX-A0414, 6-(o-Tolyl)-2-(p-tolylamino)thiazolo[4,5-d]pyrimidin-7(6H)-one]: the activity at 10 µM was determined as 150% and the concentration giving a half-maximal response (EC50) turned out to be 10 µM.
Turning to `Cc1ccc(Nc2nc3ncn(-c4ccccc4Cl)c(=O)c3s2)cc1` [JWX-A0415, 6-(2-Chlorophenyl)-2-(p-tolylamino) thiazolo[4,5-d]pyrimidin-7(6H)-one], the activity at 10 µM was determined as 680% and the concentration giving a half-maximal response (EC50) is 10 µM.
Take `Cc1ccccc1Nc1nc2ncn(-c3c(C)cccc3Cl)c(=O)c2s1` [JWX-A0602, 6-(2-Chloro-6-methylphenyl)-2-(o-tolylamino)thiazolo[4,5-d]pyrimidin-7(6H)-one]: the activity at 10 µM was found to be 300% and the EC50 was determined as 10 µM.
For `Cc1cccc(Cl)c1-n1cnc2nc(Nc3ccccc3F)sc2c1=O` [JWX-A0611, 6-(2-Chloro-6-methylphenyl)-2-((2-fluorophenyl)amino)thiazolo[4,5-d]pyrimidin-7(6H)-one], in that order: 200% and 10 µM.
For `Cc1cccc(Cl)c1-n1cnc2nc(NC(=O)c3ccc(F)cc3)sc2c1=O` [JWX-A0617, N-(6-(2-Chloro-6-methylphenyl)-7-oxo-6,7-dihydrothiazolo[4,5-d]pyrimidin-2-yl)-4-fluorobenzamide], in that order: 150% and 10 µM.
Consider `Cc1nc(Nc2nc3ncn(-c4c(C)cccc4Cl)c(=O)c3s2)cc(N2CCN(CCO)CC2)n1` [JWX-A0728, 6-(2-Chloro-6-methylphenyl)-2-((6-(4-(2-hydroxyethyl)piperazin-1-yl)-2-methylpyrimidin-4-yl)amino)thiazolo[4,5-d]pyrimidin-7(6H)-one], for which the activity at 10 µM was found to be 110%.
For `Cc1cccc(Cl)c1-n1cnc2nc(Nc3ccccc3)sc2c1=O` [JWX-A0824, 6-(2-Chloro-6-methylphenyl)-2-(phenylamino)thiazolo[4,5-d]pyrimidin-7(6H)-one], the activity at 10 µM stood at 300% and the EC50 is 10 µM.
Regarding `Cc1cccc(Cl)c1-n1cnc2nc(Nc3ccccn3)sc2c1=O` [JWX-A0828, 6-(2-Chloro-6-methylphenyl)-2-(pyridin-2-ylamino)thiazolo[4,5-d]pyrimidin-7(6H)-one], the activity at 10 µM was determined as 110%.
On the same count and under the same terms, then `Cc1cccc(Cl)c1-n1cnc2nc(O)sc2c1=O` [JWX-A0903, 6-(2-Chloro-6-methylphenyl)-2-hydroxythiazolo[4,5-d]pyrimidin-7(6H)-one], with 110%.
Turning to `Cc1cccc(Cl)c1-n1cnc2nc(Nc3cc(Cl)ncn3)sc2c1=O` [JWX-A0912, 6-(2-Chloro-6-methylphenyl)-2-((6-chloropyrimidin-4-yl)amino)thiazolo[4,5-d]pyrimidin-7(6H)-one], the activity at 10 µM was 200% and the half-maximal effective concentration (EC50) turned out to be 10 µM.
With `Cc1cccc(Cl)c1-n1cnc2nc(Nc3ccc(Cl)nn3)sc2c1=O` [JWX-A0918, 6-(2-Chloro-6-methylphenyl)-2-((6-chloropyridazin-3-yl)amino)thiazolo[4,5-d]pyrimidin-7(6H)-one], the activity at 10 µM is 110%.
Same read-out and setting: in the case of `Cc1nc(Nc2nc3ncn(-c4c(C)cccc4Cl)c(=O)c3s2)cc(N2CCN(C)CC2)n1` [JWX-A1022, 6-(2-Chloro-6-methylphenyl)-2-((2-methyl-6-(4-methylpiperazin-1-yl)pyrimidin-4-yl)amino)thiazolo[4,5-d]pyrimidin-7(6H)-one] it was 110%.
As to `Cc1ccc(Nc2nc3ncn(-c4c(C)cccc4Cl)c(=O)c3s2)cc1` [JWX-A1029, 6-(2-Chloro-6-methylphenyl)-2-(p-tolylamino)thiazolo[4,5-d]pyrimidin-7(6H)-one], the concentration giving a half-maximal response (EC50) turned out to be 7.47 µM.
Consider `COc1ccc(Nc2nc3ncn(-c4c(C)cccc4Cl)c(=O)c3s2)cc1` [JWX-A1030, 6-(2-Chloro-6-methylphenyl)-2-((4-methoxyphenyl)amino)thiazolo[4,5-d]pyrimidin-7(6H)-one], for which the activity at 10 µM came to 200% and the 50% effective concentration (EC50) stood at 10 µM.
The matching figures for `Cc1cccc(Cl)c1-n1cnc2nc(Nc3ccc(Cl)cc3)sc2c1=O` [JWX-A1104, 6-(2-Chloro-6-methylphenyl)-2-((4-chlorophenyl)amino)thiazolo[4,5-d]pyrimidin-7(6H)-one]: 200% and 10 µM.
For `Cc1cccc(Cl)c1-n1cnc2nc(Nc3ccc(Br)cc3)sc2c1=O` [JWX-A1105, 6-(2-chloro-6-methylphenyl)-2-((4-Bromophenyl)amino)-thiazolo[4,5-d]pyrimidin-7(6H)-one], in that order: 150% and 10 µM.
The matching figures for `COc1cccc(Nc2nc3ncn(-c4c(C)cccc4Cl)c(=O)c3s2)c1` [JWX-A1106, 6-(2-chloro-6-methylphenyl)-2-((3-methoxyphenyl)amino)thiazolo[4,5-d]pyrimidin-7(6H)-one]: 150% and 10 µM.
For `Cc1cccc(Cl)c1-n1cnc2nc(Nc3cccc(Br)c3)sc2c1=O` [JWX-A1113, 6-(2-chloro-6-methylphenyl)-2-((3-Bromophenyl)amino)-thiazolo[4,5-d]pyrimidin-7(6H)-one], the activity at 10 µM was 200% and the half-maximal effective concentration (EC50) came to 10 µM.
Regarding `Cc1cccc(Cl)c1-n1cnc2nc(N(C)c3ccccc3)sc2c1=O` [JWX-A1114, 6-(2-Chloro-6-methylphenyl)-2-(methyl(phenyl)amino)thiazolo[4,5-d]pyrimidin-7(6H)-one], the activity at 10 µM turned out to be 150% and the EC50 was determined as 10 µM.
For `Cc1cccc(Cl)c1-n1cnc2nc(Nc3cccc(Cl)c3)sc2c1=O` [JWX-A1116, 6-(2-Chloro-6-methylphenyl)-2-((3-chlorophenyl)amino)thiazolo[4,5-d]pyrimidin-7(6H)-one], in that order: 300% and 10 µM.
The matching figures for `Cc1cccc(Cl)c1-n1cnc2nc(Nc3ccc(F)cc3)sc2c1=O` [JWX-A1119, 6-(2-Chloro-6-methylphenyl)-2-((4-fluorophenyl)amino)thiazolo[4,5-d]pyrimidin-7(6H)-one]: 250% and 10 µM.
Take `Cc1cccc(Nc2nc3ncn(-c4c(C)cccc4Cl)c(=O)c3s2)c1` [JWX-A1211, 6-(2-Chloro-6-methylphenyl)-2-(m-tolylamino)thiazolo[4,5-d]pyrimidin-7(6H)-one]: the EC50 came to 8.39 µM.
As for `Cc1cccc(Cl)c1-n1cnc2nc(Nc3cccc(F)c3)sc2c1=O` [JWX-A1214, 6-(2-Chloro-6-methylphenyl)-2-((3-fluorophenyl)amino)thiazolo[4,5-d]pyrimidin-7(6H)-one], the activity at 10 µM came out at 450% and the EC50 was 7.65 µM.
With `Cc1cccc(Cl)c1-n1cnc2nc(SCc3ccccc3)sc2c1=O` [JWX-A1223, 6-(2-chloro-6-methylphenyl)-2-(Benzylthio)thiazolo[4,5-d]pyrimidin-7(6H)-one], the EC50 stood at 1.26 µM.
